Assay results as given in patent US9864847B2, “Method for predicting the solubility of a molecule in a polymer at a given temperature” (priority 2014, dated 2018).

Key:
[1] = indomethacin / PVP-K30 at 25° C.; cited from earlier work
[2] = 25° C.
Description: The drug indomethacin and the polymer PVP-K30 were taken in various ratios, corresponding to weight percentages of indomethacin in the mixture of 2.5%, 10%, 15%, and 20%. DSC was performed on the pure indomethacin and pure PVP-K30, and the specific heat for each was obtained as a function of the temperature over the range of 220K to 310K. The DSC instrument provided reliable data as low as 220K, which was taken as Tmin. Solid solutions were formed by mixing the drug and polymer in a mortar and pestle, allowing them to stand at 130° C. (403 K) for 5 days, then allowing them to cool to room temperature. DSC was also performed to determine the specific heat of the solid solutions from 220K to 300K. All DSC was performed using a pinhole in the lid and was thus considered open pan, so the specific heats were considered to be obtained at constant pressure. All heating and cooling rates were 5° C. per minute. […]
The entire procedure was repeated for each indomethacin-PVP combinations (2.5% m 10%, 15% and 20% indomethacin by weight), including obtaining the adjustable parameters a0, a1 . . . a8 for each indomethacin/PVP-K30 combination. […] The values of ΔgSS at 25° C. were calculated for each drug-polymer ratio from Eq. (33), and subsequently used to calculate values of ΔgSS/f0.

[3] = Difference in specific enthalpy and specific entropy (solid solution minus unmixed components) from DSC specific heats; type: physicochemical; conditions: indomethacin 2.5% by weight with PVP-K30
Description: In practice, there is a lower limit to the temperature at which thermal analysis instruments such as DSC can provide accurate experimental data. As a result, it is not possible to experimentally obtain the necessary specific heats over all temperatures down to absolute zero, but instead they only be evaluated to a minimum temperature, denoted by Tmin. The experimental data can be used to construct a temperature-dependent difference in specific heats, denoted as ΔCP, which is defined as the difference between the specific heat of the solid solution minus the specific heat of the unmixed components in the same ratio, over the temperature range of Tmin to any higher temperature T for which experimental specific heat data is available. This is given by Δ[…]) (29) Because of the thermal analysis instrument limitations, ΔCP provides no data between absolute zero and Tmin, so it is necessary to estimate the values of specific heat differences at temperatures below Tmin. One way to do this is to extrapolate the plot of the experimentally obtained ΔCP vs. the temperature from Tmin to absolute zero. This can be done as follows. • Obtain the experimental values for ΔCP from Tmin up to at least temperature Tat which the solubility of the drug in the polymer is to be evaluated. • Construct an approximating function Δc that is a function of the temperature, which will be used to estimate ΔCP at temperatures lower than Tmin. • Fit the function Δc to the experimental values of ΔCP from Tmin to T using any appropriate method, such as linear or nonlinear regression. • Using the fitted equation for Δc, calculate values of Δc over temperatures from absolute zero to Tmin. These values will be used as substitutes for experimental specific heat difference for temperatures below Tmin. There is no theoretical model or equation that dictates the mathematical form of Δc, and more than one functional form can be chosen. […] One preferred form would be a sum of a constant plus exponentials, such as Δ[…]) (30) where a0, a1 . . . a8 are temperature independent parameters with values that can be determined or fit by nonlinear regression or other methods so Eq. (30) will be a good approximation to the experimental ΔCP vs. temperature data over the experimental temperature range. […] (The value for a4 was not determined because the coefficient multiplying the exponential a3 was zero. […] Using the values Δc calculated from Eq. (34) for temperatures from 0 to […], and the experimental values of ΔCP, values of Δ[…] calculated from Eq. (31) and (32), respectively, for various temperatures. For this combination of indomethacin and PVP-K30, the calculated specific enthalpy values at -10° C. and 25° C.

maximum stable weight fraction of indomethacin in PVP-K30 solid solution [2]: 15 % by weight
indomethacin weight fraction at minimum of ΔgSS/f0 ([2]; PVP-K30, FIG. 4): approximately 0.15
Δhheat (calculated specific enthalpy difference) ([3]; 25° C. (298 K)): 18.347 J/g
Δsheat (calculated specific entropy difference) ([3]; 25° C. (298 K)): 0.0787 J/K/g
Δhheat (calculated specific enthalpy difference) ([3]; −10° C. (263 K)): 9.66 J/g
Δsheat (calculated specific entropy difference) ([3]; −10° C. (263 K)): 0.0479 J/K/g
Structure (SMILES): COc1ccc2c(c1)c(CC(=O)O)c(C)n2C(=O)c1ccc(Cl)cc1 [indomethacin]
interaction parameter χ [1]: 0.747
